# Data: publication PMC7504051, “Ilimaquinone Induces the Apoptotic Cell Death of Cancer Cells by Reducing Pyruvate Dehydrogenase Kinase 1 Activity” (International Journal of Molecular Sciences, 2020)
# Key:
# [1] = target: T1, pyruvate dehydrogenase kinase 1 (PDK1) (Homo sapiens, UniProt Q15118); test: radiolabelled (α-32P)ATP binding to bead-bound purified PDK1, scintillation counting, unlabelled ATP as competitor
# T1 construct: His-tagged PDK1
# [2] = target: T1, pyruvate dehydrogenase kinase 1 (PDK1); test: isothermal titration calorimetry (MicroCal AutoITC200); supported by (α-32P)ATP displacement from purified PDK1; format: binding
# T1 sequence (Q15118 29-436): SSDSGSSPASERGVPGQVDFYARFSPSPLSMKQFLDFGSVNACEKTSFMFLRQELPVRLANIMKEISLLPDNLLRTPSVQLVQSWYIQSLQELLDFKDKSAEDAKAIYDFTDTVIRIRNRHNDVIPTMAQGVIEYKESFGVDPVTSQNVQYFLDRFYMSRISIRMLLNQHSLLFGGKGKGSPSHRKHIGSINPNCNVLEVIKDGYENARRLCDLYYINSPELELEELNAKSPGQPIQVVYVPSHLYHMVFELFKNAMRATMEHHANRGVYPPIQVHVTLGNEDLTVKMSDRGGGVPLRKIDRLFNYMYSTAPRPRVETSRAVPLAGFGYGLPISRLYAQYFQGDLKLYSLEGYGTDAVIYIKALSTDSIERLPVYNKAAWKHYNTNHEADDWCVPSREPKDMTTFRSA
Kd [2] [µM],Compound,"radiolabelled (α-32P)ATP binding to bead-bound purified PDK1, scintillation coun [1]"
,Nc1ncnc2c1ncn2[C@@H]1O[C@H](COP(=O)(O)OP(=O)(O)OP(=O)(O)O)[C@@H](O)[C@H]1O [ATP],The binding of ATP to PDK1 in the presence of IQ was determined using α^32-labeled ATP.
14.6,"C=C1CCC[C@H]2[C@](C)(CC3=C(O)C(=O)C=C(OC)C3=O)[C@@H](C)CC[C@]12C [IQ, ilimaquinone]",
